Legend:
[1] = test system: C57BL/6J and C3H/HeJ primary bone marrow-derived macrophages
KiflC in NIH3T3 cells = conditions: cited from earlier work
KiflC in NIH3T3 cells, sequence (O35071 whole entry): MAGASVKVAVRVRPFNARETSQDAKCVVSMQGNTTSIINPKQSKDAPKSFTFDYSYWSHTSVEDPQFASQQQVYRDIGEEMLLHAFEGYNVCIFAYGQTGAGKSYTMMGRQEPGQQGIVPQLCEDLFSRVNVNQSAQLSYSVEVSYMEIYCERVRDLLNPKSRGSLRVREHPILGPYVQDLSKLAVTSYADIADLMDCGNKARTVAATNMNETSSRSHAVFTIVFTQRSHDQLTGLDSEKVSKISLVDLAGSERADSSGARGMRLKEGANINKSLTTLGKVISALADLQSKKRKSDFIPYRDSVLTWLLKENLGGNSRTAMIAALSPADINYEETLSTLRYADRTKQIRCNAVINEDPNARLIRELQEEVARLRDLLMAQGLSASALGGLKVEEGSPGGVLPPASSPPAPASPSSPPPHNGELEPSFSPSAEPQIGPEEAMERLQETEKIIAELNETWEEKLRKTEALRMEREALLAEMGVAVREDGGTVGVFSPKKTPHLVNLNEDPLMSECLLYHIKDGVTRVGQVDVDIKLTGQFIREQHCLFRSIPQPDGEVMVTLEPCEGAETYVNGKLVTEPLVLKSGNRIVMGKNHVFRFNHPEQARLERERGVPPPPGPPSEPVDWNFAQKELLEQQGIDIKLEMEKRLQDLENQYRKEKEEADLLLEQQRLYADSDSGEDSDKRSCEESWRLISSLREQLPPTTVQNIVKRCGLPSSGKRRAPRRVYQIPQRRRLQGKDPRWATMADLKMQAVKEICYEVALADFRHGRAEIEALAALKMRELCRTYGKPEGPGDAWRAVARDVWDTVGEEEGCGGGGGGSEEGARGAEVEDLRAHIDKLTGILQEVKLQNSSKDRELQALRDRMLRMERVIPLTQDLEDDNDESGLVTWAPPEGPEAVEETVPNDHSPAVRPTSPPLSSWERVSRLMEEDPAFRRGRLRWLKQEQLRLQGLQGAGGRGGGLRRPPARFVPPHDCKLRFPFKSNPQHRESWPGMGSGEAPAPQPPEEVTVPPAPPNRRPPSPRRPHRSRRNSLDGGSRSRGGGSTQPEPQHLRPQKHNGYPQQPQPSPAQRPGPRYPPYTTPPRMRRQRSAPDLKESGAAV

For brefeldin A [BFA], the “Susceptibility of susceptible macrophages to intoxication with LF in the presence of BFA” value [1] is listed as “unaltered” and the “Relocalization of KiflC” value (KiflC in NIH3T3 cells) is listed as “dramatic relocalization of KiflC to the Endoplasmic Reticulum”.

— patent US20040038222A1 (priority 2001, published 2004)
